Literature values in patent US20090202444A1 (priority 2009, published 2009).

Tested on: bacteria

[Ag+] [silver ion]
silver ion concentration for inhibition of bacterial growth: below 5 ppm
